56 compounds from patent US6369069B1 (Aventis Pharma Deutschland GmbH, priority 1998, dated 2002) can be followed below.

Structures are written as SMILES.

The first assay concerns Na^+-dependent Cl^−/HCO3^− exchanger (NCBE). The experiment in a line: Inhibition of the Na+-dependent Cl−/HCO3− exchanger (NCBE) in human endothelial cells (pHi recovery, BCECF fluorescence, FLIPR). It counts as cell-based. The following applies: 10 μM. In short, it runs like this: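 Fluorescence rise (FLIPR, 2 min, 35 °C) tracked pHi recovery in acid-loaded, BCECF-loaded ECV-304 cells after adding Na+- and HCO3−-containing buffer with 50 μM HOE 642 and graded compound doses. Inhibition was calculated against full-recovery and bicarbonate-free no-recovery controls.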
Consider `N#CNS(=O)(=O)c1ccccc1-c1ccc(CN(CC2CCCO2)C(=O)CCOc2ccccc2)cc1` (centres unmarked) [Example 348], for which the “Residual activity % of the NCBE at 10 μM” value was found to be 46.3%.
For `N#CNS(=O)(=O)c1ccccc1-c1ccc(CN(Cc2cccc(Cl)c2Cl)C(=O)CC2CCCCC2)cc1` [Example 349], the “Residual activity % of the NCBE at 10 μM” value is given as 50.4%.
Still for that read-out and setting: the value for `Cc1cccc(CN(Cc2ccc(-c3ccccc3S(=O)(=O)NC#N)cc2)C(=O)CC2CCCCC2)c1` [Example 351] was 27.2%.
Regarding `Cc1ccccc1CN(Cc1ccc(-c2ccccc2S(=O)(=O)NC#N)cc1)C(=O)CC1CCCCC1` [Example 352], the “Residual activity % of the NCBE at 10 μM” value came out at 35.2%.
The same measure, in the same setting: to `CC(C)=CCCC(C)=CCN(Cc1ccc(-c2ccccc2S(=O)(=O)NC#N)cc1)C(=O)CC1CCCCC1` [Example 353] belongs 47.9%; to `N#CNS(=O)(=O)c1ccccc1-c1ccc(CN(C(=O)CC2CCCCC2)C2CCc3ccccc32)cc1` (centres unmarked) [Example 354], 37.2%; to `N#CNS(=O)(=O)c1ccccc1-c1ccc(CN(C(=O)CC2CCCCC2)C2CCCc3ccccc32)cc1` (centres unmarked) [Example 355], 46.8%.
For `N#CNS(=O)(=O)c1ccccc1-c1ccc(CN(Cc2ccccc2F)C(=O)CC2CCCCC2)cc1` [Example 356], the “Residual activity % of the NCBE at 10 μM” value was determined as 47.4%.
The same measure, in the same setting: to `N#CNS(=O)(=O)c1ccccc1-c1ccc(CN(Cc2cccc(-c3ccccc3)c2)C(=O)CC2CCCCC2)cc1` [Example 357] belongs 61.9%; to `N#CNS(=O)(=O)c1ccccc1-c1ccc(CN(CC2CCCO2)C(=O)CC2CCCCC2)cc1` (centres unmarked) [Example 358], 55.5%.
The same measure, in the same setting: to `N#CNS(=O)(=O)c1ccccc1-c1ccc(CN(Cc2cccc(Cl)c2Cl)C(=O)CC2CCCC2)cc1` [Example 359] belongs 37.9%.
On the same count and under the same terms, to `N#CNS(=O)(=O)c1ccccc1-c1ccc(CN(Cc2ccc3ccccc3c2)C(=O)CC2CCCC2)cc1` [Example 360] belongs 36.9%; to `Cc1cccc(CN(Cc2ccc(-c3ccccc3S(=O)(=O)NC#N)cc2)C(=O)CC2CCCC2)c1` [Example 361], 29.4%.
As to `Cc1ccccc1CN(Cc1ccc(-c2ccccc2S(=O)(=O)NC#N)cc1)C(=O)CC1CCCC1` [Example 362], the “Residual activity % of the NCBE at 10 μM” value turned out to be 44.1%.
For `CC(C)=CCCC(C)=CCN(Cc1ccc(-c2ccccc2S(=O)(=O)NC#N)cc1)C(=O)CC1CCCC1` [Example 363], the “Residual activity % of the NCBE at 10 μM” value came out at 48.3%.
For the compound `N#CNS(=O)(=O)c1ccccc1-c1ccc(CN(C(=O)CC2CCCC2)C2CCc3ccccc32)cc1` (centres unmarked) [Example 364], the “Residual activity % of the NCBE at 10 μM” value was found to be 52.6%.
Consider `N#CNS(=O)(=O)c1ccccc1-c1ccc(CN(C(=O)CC2CCCC2)C2CCCc3ccccc32)cc1` (centres unmarked) [Example 365], for which the “Residual activity % of the NCBE at 10 μM” value amounted to 45.1%.

Staying with this assay, now noted: compound at 10 μM; R(3) to R(7) hydrogen series.
`N#CNS(=O)(=O)c1ccccc1-c1ccc(CN(Cc2ccccc2F)C(=O)CC2CCCC2)cc1` [Example 366]: the “Residual activity % of the NCBE at 10 μM” value stood at 38.4%.
Regarding `N#CNS(=O)(=O)c1ccccc1-c1ccc(CN(Cc2cccc(-c3ccccc3)c2)C(=O)CC2CCCC2)cc1` [Example 367], the “Residual activity % of the NCBE at 10 μM” value was 25.5%.
Same read-out and setting: the value for `N#CNS(=O)(=O)c1ccccc1-c1ccc(CN(CC2CCCO2)C(=O)CC2CCCC2)cc1` (centres unmarked) [Example 368] was 51.0%.
Same read-out and setting: the value for `CC(C(=O)N(Cc1ccccc1)Cc1ccc(-c2ccccc2S(=O)(=O)NC#N)cc1)c1ccsc1` (centres unmarked) [Example 388] was 63.7%; that for `N#CNS(=O)(=O)c1ccccc1-c1ccc(CN(Cc2ccccc2)C(=O)Cc2ccco2)cc1` [Example 389] was 51.5%; that for `CC(C(=O)N(Cc1ccc(-c2ccccc2S(=O)(=O)NC#N)cc1)Cc1cccc2ccccc12)c1cccs1` (centres unmarked) [Example 390] was 89.8%.
As to `N#CNS(=O)(=O)c1ccccc1-c1ccc(CN(Cc2cccc3ccccc23)C(=O)Cc2ccco2)cc1` [Example 391], the “Residual activity % of the NCBE at 10 μM” value is 55.4%.
The same measure, in the same setting: the value for `N#CNS(=O)(=O)c1ccccc1-c1ccc(CN(CC2(c3ccccc3)CCCC2)C(=O)Cc2cccs2)cc1` [Example 392] was 55.6%; that for `CC(C(=O)N(Cc1ccc(-c2ccccc2S(=O)(=O)NC#N)cc1)CC1(c2ccccc2)CCCC1)c1cccs1` (centres unmarked) [Example 393] was 16.7%.
Still for that read-out and setting: the value for `N#CNS(=O)(=O)c1ccccc1-c1ccc(CN(CC2(c3ccccc3)CCCC2)C(=O)Cc2ccco2)cc1` [Example 394] was 72.5%.
The same measure, in the same setting: to `CCC(CC)(CN(Cc1ccc(-c2ccccc2S(=O)(=O)NC#N)cc1)C(=O)Cc1cccs1)c1ccc(OC)cc1` [Example 395] belongs 50.9%; to `N#CNS(=O)(=O)c1ccccc1-c1ccc(CN(CC2CC(C(=O)N3CCCC3)=NO2)C(=O)Cc2cccs2)cc1` (centres unmarked) [Example 396], 53.2%.
For the compound `CC(C(=O)N(Cc1ccc(-c2ccccc2S(=O)(=O)NC#N)cc1)CC1CC(C(=O)N2CCCC2)=NO1)c1cccs1` (centres unmarked) [Example 397], the “Residual activity % of the NCBE at 10 μM” value was found to be 44.0%.
On the same count and under the same terms, to `Cc1ccc(C(C)C(=O)N(Cc2ccccc2)Cc2ccc(-c3ccccc3S(=O)(=O)NC#N)cc2)s1` (centres unmarked) [Example 481] belongs 62.6%.

The assay is the same for the next values; noted with them: compound at 10 μM; sub-table with R7 substituent.
Take `Cc1ccc(-c2ccc(CN(Cc3ccccc3)C(=O)Cc3cccs3)cc2)c(S(=O)(=O)NC#N)c1` [Example 513]: the “Residual activity % of the NCBE at 10 μM” value is 88.6%.
On the same count and under the same terms, to `Cc1ccc(-c2ccc(CN(Cc3cccc4ccccc34)C(=O)Cc3cccs3)cc2)c(S(=O)(=O)NC#N)c1` [Example 514] belongs 74.9%.
On the same count and under the same terms, to `Cc1ccc(-c2ccc(CN(Cc3ccc4ccccc4c3)C(=O)Cc3cccs3)cc2)c(S(=O)(=O)NC#N)c1` [Example 515] belongs 68.9%.
As for `Cc1ccc(-c2ccc(CN(Cc3ccccc3Cl)C(=O)Cc3cccs3)cc2)c(S(=O)(=O)NC#N)c1` [Example 516], the “Residual activity % of the NCBE at 10 μM” value was 98.7%.
`Cc1ccc(-c2ccc(CN(Cc3cccs3)C(=O)Cc3cccs3)cc2)c(S(=O)(=O)NC#N)c1` [Example 517]: the “Residual activity % of the NCBE at 10 μM” value was found to be 86.2%.
Regarding `Cc1ccc(-c2ccc(CN(CCc3ccccc3)C(=O)Cc3cccs3)cc2)c(S(=O)(=O)NC#N)c1` [Example 518], the “Residual activity % of the NCBE at 10 μM” value is reported as 93.5%.
Still for that read-out and setting: the value for `Cc1ccc(-c2ccc(CN(Cc3ccccc3F)C(=O)Cc3cccs3)cc2)c(S(=O)(=O)NC#N)c1` [Example 519] was 95.6%; that for `Cc1ccc(-c2ccc(CN(Cc3cccc(Cl)c3Cl)C(=O)Cc3cccs3)cc2)c(S(=O)(=O)NC#N)c1` [Example 520] was 85.9%; that for `Cc1ccc(-c2ccc(CN(Cc3ccccc3)C(=O)C(C)c3cccs3)cc2)c(S(=O)(=O)NC#N)c1` (centres unmarked) [Example 521] was 88.2%.
Take `Cc1ccc(-c2ccc(CN(Cc3cccc4ccccc34)C(=O)C(C)c3cccs3)cc2)c(S(=O)(=O)NC#N)c1` (centres unmarked) [Example 522]: the “Residual activity % of the NCBE at 10 μM” value came out at 85.6%.
Still for that read-out and setting: to `Cc1ccc(-c2ccc(CN(Cc3ccc4ccccc4c3)C(=O)C(C)c3cccs3)cc2)c(S(=O)(=O)NC#N)c1` (centres unmarked) [Example 523] belongs 92.3%.
Same read-out and setting: the value for `Cc1ccc(-c2ccc(CN(Cc3cccs3)C(=O)C(C)c3cccs3)cc2)c(S(=O)(=O)NC#N)c1` (centres unmarked) [Example 525] was 74.0%; that for `Cc1ccc(-c2ccc(CN(CCc3ccccc3)C(=O)C(C)c3cccs3)cc2)c(S(=O)(=O)NC#N)c1` (centres unmarked) [Example 526] was 64.9%; that for `Cc1ccc(-c2ccc(CN(Cc3ccccc3F)C(=O)C(C)c3cccs3)cc2)c(S(=O)(=O)NC#N)c1` (centres unmarked) [Example 527] was 67.5%.
On the same count and under the same terms, to `Cc1ccc(-c2ccc(CN(Cc3cccc(Cl)c3Cl)C(=O)C(C)c3cccs3)cc2)c(S(=O)(=O)NC#N)c1` (centres unmarked) [Example 528] belongs 72.0%; to `Cc1ccc(-c2ccc(CN(Cc3ccccc3)C(=O)Cc3ccc(Cl)cc3)cc2)c(S(=O)(=O)NC#N)c1` [Example 529], 89.4%.
Take `Cc1ccc(-c2ccc(CN(Cc3cccc4ccccc34)C(=O)Cc3ccc(Cl)cc3)cc2)c(S(=O)(=O)NC#N)c1` [Example 530]: the “Residual activity % of the NCBE at 10 μM” value is reported as 89.8%.
With `Cc1ccc(-c2ccc(CN(Cc3ccc4ccccc4c3)C(=O)Cc3ccc(Cl)cc3)cc2)c(S(=O)(=O)NC#N)c1` [Example 531], the “Residual activity % of the NCBE at 10 μM” value came out at 75.6%.
As to `Cc1ccc(-c2ccc(CN(Cc3ccccc3Cl)C(=O)Cc3ccc(Cl)cc3)cc2)c(S(=O)(=O)NC#N)c1` [Example 532], the “Residual activity % of the NCBE at 10 μM” value was found to be 71.0%.
On the same count and under the same terms, the value for `Cc1ccc(-c2ccc(CN(Cc3cccs3)C(=O)Cc3ccc(Cl)cc3)cc2)c(S(=O)(=O)NC#N)c1` [Example 533] was 75.5%; that for `Cc1ccc(-c2ccc(CN(CCc3ccccc3)C(=O)Cc3ccc(Cl)cc3)cc2)c(S(=O)(=O)NC#N)c1` [Example 534] was 80.0%; that for `Cc1ccc(-c2ccc(CN(Cc3ccccc3F)C(=O)Cc3ccc(Cl)cc3)cc2)c(S(=O)(=O)NC#N)c1` [Example 535] was 84.0%.
On the same count and under the same terms, the value for `Cc1ccc(-c2ccc(CN(Cc3cccc(Cl)c3Cl)C(=O)Cc3ccc(Cl)cc3)cc2)c(S(=O)(=O)NC#N)c1` [Example 536] was 76.3%.
On the same count and under the same terms, to `Cc1ccc(-c2ccc(CN(Cc3ccccc3)C(=O)Cc3ccsc3)cc2)c(S(=O)(=O)NC#N)c1` [Example 537] belongs 54.4%; to `Cc1ccc(-c2ccc(CN(Cc3cccc4ccccc34)C(=O)Cc3ccsc3)cc2)c(S(=O)(=O)NC#N)c1` [Example 538], 80.3%.
